# From US10845371B2, “Soluble MANF in pancreatic beta-cell disorders” (University of Massachusetts, priority 2012, dated 2020)
# Ends that are not written are not given here. Peptide text beside a SMILES is read from it. * marks the point of attachment. Cbz = O=C(OCc1ccccc1)*
# Experiments:
# [1] = system: MEROS-GFP (ER redox state) in INS-1 832/13 cells; assay: MEROS-GFP ratio by fluorescent plate reader in INS-1 832/13 cells; assay type: cell-based, rat; conditions: 30 minutes; H2O2 0.1 or 1 mM, DTT 0.1-10 mM, FIG. 12
# Method: FIG. 12 is a graph of the MEROS-GFP ratio in INS-1 832/13 cells left untreated (no label), or treated with H2O2 (1 or 0.1 mM H2O2) or DTT (0.1, 0.2, 0.5, 1, 2, 5, or 10 mM DTT). The MEROS-GFP ratio was determined using a plate reader. The data shown are mean±S.D. (n=3).
# The ratio between fluorescence from excitation 473 nm versus 394 nm normalized to wild-type untreated cells is called the MEROS-GFP ratio. The MEROS-GFP ratio was determined using a fluorescent plate reader. In these experiments, the INS-1 832/13 cells were plated onto a 96-well plate at 50,000 cells/well, the cells treated with H2O2 or DTT at various concentrations for 30 minutes, and the fluorescence at excitation wavelength 473 nm and emission wavelength 510 nm (for reduced MEROS-GFP) or at excitation wavelength 394 nm and emission wavelength 510 nm (for oxidized MEROS-GFP) was measured. The MEROS-GFP ratio was determined after substraction of background signal.
# [2] = system: MEROS-GFP in INS-1 832/13 cells; assay: Confocal microscopy of MEROS-GFP fluorescence; assay type: cell-based, rat; conditions: 2 mM DTT, FIG. 11
# Method: FIG. 11 is a set of four confocal microscopy images of MEROS-GFP gathered using a 476-nm excitation wavelength (bottom two panels) or a 405-nm excitation wavelength (top two panels) in INS-1 832/13 cells treated with (right two panels) or without (left two panels) 2 mM DTT.
# [3] = system: MEROS-GFP in INS-1 832/13 cells; assay: Non-reducing SDS-PAGE of AMS-modified MEROS-GFP; assay type: cell-based, rat; conditions: 2 mM DTT, FIG. 13
# Method: FIG. 13 is photograph of non-reducing polyacrylamide gel electrophoresis (PAGE) of 4-acetamido-4′-maleimidylstilbene-2, 2′-disulfonic acid (AMS)-modified MEROS-GFP in lysate from cells left untreated (left lane) or treated with 2 mM DTT (right lane). The lysates were either left untreated (−βME) (top) or were treated with β-mercaptoethanol (+βME) (bottom) prior to electrophoresis.
# Additional experiments were performed to confirm that the MEROS-GFP ratio reflected changes in its redox state in vivo. In these experiments, the redox state of MEROS-GFP was monitored using non-reducing SDS-PAGE in combination with the thiol-alkylating reagent, 4-acetamido-4′-maleimidylstilbene-2, 2′-disulfonic acid (AMS). In these experiments, INS-1 832/13 cells left untreated or treated with 2 mM DTT, were lysed with 1× SDS-PAGE sample buffer containing 25 mM AMS with or without 2-β-mercaptoethanol, boiled at 95° C. for 10 minutes, electrophoresed using SDS-PAGE, and immunoblotted using an anti-GFP antibody.
# [4] = system: MEROS-GFP (ER redox state) in NSC34 cells; assay: Time course of MEROS-GFP ratio in NSC34 cells; assay type: cell-based; conditions: 1 mM DTT for 10 minutes, then wash, FIG. 14
# Method: FIG. 14 is a graph showing a time course of the MEROS-GFP ratio in NSC34 cells that are treated with 1 mM DTT for 10 minutes, and then washed. The MEROS-GFP ratio was calculated at each minute interval between one minute prior to treatment to four minutes after the wash. The bottom line represents the fluorescence observed with excitation at 473 nm, the black line represents the MEROS-GFP ratio, and the light grey line represents the fluorescence with excitation at 394 nm (n=3; S.D.).
# The MEROS-GFP ratio was also monitored in DTT-treated cells at different time points.
# [5] = system: MEROS-GFP (ER redox state) in INS-1 832/13 cells; assay: MEROS-GFP ratio by flow cytometry in INS-1 832/13 cells; assay type: cell-based, rat; conditions: for Median MEROS-GFP ratio (FACS): normalized to untreated, DTT 0.2-10 mM, 1 mM H2O2 30 min, TM 5 μM, TG 10 nM 24 h or 1 μM 4 h, BreA 100 ng/mL, MG132, palmitate 0.2-0.5 mM, hIAPP 10 μM, 24 h, FIGS. 17-24
# Method: FIG. 15 is fluorescence-assisted cell sorting (FACS) data of INS-1 832/13 cells stably-transfected with MEROS-GFP following no treatment or treatment with DTT (0.2, 0.5, or 10 mM DTT). The data was collected using excitation wavelengths of 488 nm and 405 nm, and an emission spectrum of 510 nm.
# FIG. 16 is a histogram of FACS data of INS-1 832/13 cells stably-transfected with MEROS-GFP following no treatment or treatment with DTT (0.2 mM, 0.5 mM, or 10 mM DTT). The horizontal axis represents the MEROS-GFP ratio and the vertical axis represents the number of cells.
# FIG. 17 is a graph of the median MEROS-GFP ratio in INS-1 832/13 cells stably-transfected with MEROS-GFP following no treatment or treatment with DTT (0.2, 0.5, or 10 mM DTT). The MEROS-GFP values shown are normalized to the untreated values.
# FIG. 18 is two graphs showing data from FACS analysis of INS-1 832/13 cells stably-transfected with MEROS-GFP following no treatment or treatment with 1 mM H2O2 for 30 minutes. The right graph is a histogram of the MEROS-GFP ratio in INS-1 832/13 cells not treated or treated with 1 mM H202.
# FIG. 19 is a graph of the median MEROS-GFP ratio calculated in INS-1 832/13 cells using FACS analysis following no treatment or treatment with tunicamycin (TM) (5 μM; 24 hours), thapsigargin (TG) (10 nM; 24 hours), TG (1 μM; 4 hours), brefeldin A (BreA) (100 ng/mL; 24 hours), or MG132 ([…]; 24 hours). […] The data are normalized to the median MEROS-GFP ratio calculated for the untreated cells.
# The error bars represent ±S.D. The data are normalized to the median MEROS-GFP ratio calculated for the untreated cells.
# FIG. 24 is a graph of the median MEROS-GFP ratio in INS-1 832/13 cells left untreated or treatment with human islet amyloid polypeptide (IAPP) (10 μM; 24 hours), mouse IAPP (10 μM; 24 hours), or cytokines ([…] (5 ng/mL), INFγ (100 ng/mL), and TNFα (25 ng/mL); 24 hours)). The error bars represent ±S.D. The data are normalized to the median MEROS-GFP ratio calculated for the untreated cells.
# Flow cytometry was used to precisely monitor the MEROS-GFP ratio in vivo.
# Experiments were performed to study the relationship between the UPR and the heterogeneity of the redox state. In these experiments, both the redox state and the activation levels of the UPR were monitored in the same cells. To achieve this, a UPR reporter gene encoding the red fluorescent protein, mCherry, driven by the human BiP promoter was constructed. […] This BiP-mCherry reporter plasmid was transfected into INS-1 832/13 cells expressing MEROS-GFP, and FACS analysis was used to monitor the MEROS-GFP ratio and the activation levels of the UPR via BiP-mCherry in the same cells (FIG. 31). The activation levels of BiP-mCherry and the MEROS-GFP ratio were monitored following the induction of ER stress. In these experiments, INS-1 832/13 cells expressing MEROS-GFP were plated onto 6-well plates, treated with each compound for indicated times, and then harvested by trypsinization. After washing with phosphate buffered saline, cells were resuspended in the 11 mM glucose-Hanks buffered salt solution. Flow cytometry analyses were performed with LSRII (BD).
# [6] = system: MEROS-GFP (ER redox state) in INS-1 832/13 cells; assay: MEROS-GFP pilot screen of 1280-compound library and follow-up screens; assay type: cell-based, rat; conditions: 0.2 mM DTT challenge for 2 hours, 96-well plates; untreated 0.037
# Method: A pilot screen of a 1280-compound library (MicroSource), a collection of 1,040 U.S. drugs and 240 international drugs (FIG. 39) was performed. In this experiment, INS-1 832/13 cells stably-expressing MEROS-GFP were seeded (20,000 cells/well) in black optical 96-well plates. After 24 hours, 2 μL of each compound was added using the TeMo liquid handling robot. After another 24 hours, cells were challenged with 0.2 mM DTT, a strong reducing agent, for 2 hours, and then the MEROS-GFP ratio was calculated.
# INS-1 832/13 cells = assay: Percentage of reduced cells (MEROS-GFP ratio >2) by flow cytometry after fatty acids; assay type: cell-based, rat; conditions: 0.5 mM palmitate plus 0.5 mM oleic or linoleic acid, 24 hours, FIG. 30
# Source text: The y-axis represents fluorescence following excitation using 488 nm and the x-axis represents fluorescence following excitation using 405 nm.
# The data for cells treated with palmitate is shifted to the right.
# The error bars indicate ±standard deviation (**p<0.01).
# MANF [7] = assay: MANF protein (immunoblot) and mRNA (real-time PCR) in INS-1 832/13 cells treated with ER stress inducers; assay type: cell-based, rat; conditions: 24 hours; for MANF mRNA levels: 5 μM tunicamycin or 20 nM thapsigargin, FIG. 2
# Method: FIG. 1 is an immunoblot showing the levels of MANF protein in concentrated medium from a culture of a rat pancreatic β-cell line (INS-1 832/13) or in lysate from the rat pancreatic β-cell line (INS-1 832/13) after no treatment or treatment with thapsigargin (50 nM) or tunicamycin (0.5 μg/mL) for 24 hours.
# FIG. 2 is a graph showing the relative expression of MANF mRNA in a rat pancreatic β-cell line (INS-1 832/13) cultured under the following conditions: 11 mM glucose (24 hours); 25 mM glucose (24 hours); 25 mM glucose (48 hours); 25 mM glucose (72 hours); 11 mM glucose and 5 μM tunicamycin (TM) (24 hours); or 11 mM glucose and 20 nM thapsigargin (Tg) (24 hours). The data shown were generated using quantitative real-time PCR (n=3, S.D.).
# (§1) Experiments were performed to determine if expression of soluble MANF is induced in pancreatic β-cells in response to endoplasmic reticulum stress. These experiments were performed using rodent pancreatic β-cell lines (INS-1 832/13 and MIN6), primary mouse and human islets, and two different chemical agents that induce endoplasmic reticulum stress (thapsigargin and tunicamycin). INS-1 832/13 cells were cultured in RPMI-1640 containing 10% fetal bovine serum, penicillin, streptomycin, sodium pyruvate, and 0.1% β-mercaptoethanol. Primary islets were obtained from Prodo, and plated into 6-well plates precoated with laminin V produced by 804G cells, and cultured in CMRL medium supplemented with fetal bovine serum, non-essential amino acids, sodium pyruvate, and antibiotics.
# MANF [8] = assay: MANF mRNA in mouse primary islets treated with thapsigargin (real-time PCR); assay type: cell-based; conditions: 0.5 μM thapsigargin, 6 hours, FIG. 3
# Method: FIG. 3 is a graph showing the relative expression of MANF, WFS1, TXNIP, and CHOP mRNA in mouse primary islets cultured five days with 5 mM glucose (LG), 11 mM glucose (MG), or 25 mM glucose (HG), or five days with 5 mM glucose (LG) and 6 hours with 0.5 μM thapsigargin (TG). The data shown were generated using quantitative real-time PCR (n=3; S.D.).
# as §1
# (§2) A second set of experiments were performed using human primary islets from two human donors.
# MANF [9] = assay: MANF mRNA and soluble MANF protein in human primary islets treated with thapsigargin; assay type: cell-based; conditions: thapsigargin 0.25 μM, 24 hours
# Method: The data shown were generated using quantitative real-time PCR (n=3; S.D.).
# In this experiment, human MANF was immunoprecipitated using a rabbit anti-human MANF antibody (Proteintech), and the same antibody was used to develop the immunoblot.
# as §1, §2
compound,measurement,setting,value
"O[C@H](CS)[C@H](O)CS (racemic) [DTT, dithiothreitol]",MEROS-GFP ratio (plate reader),[1],increased the MEROS-GFP ratio in a dose-dependent manner
same,MEROS-GFP fluorescence from 476 nm excitation,[2],significantly increased
same,"Redox state of MEROS-GFP (AMS, non-reducing SDS-PAGE)",[3],fully reduced MEROS-GFP in vivo
same,Time to reduction of the ER (MEROS-GFP ratio),[4],ER could be reduced within a few minutes
same,Ratio of fluorescence from excitation at 488 nm versus 405 nm (FACS),"[5]; DTT 0.2, 0.5, 10 mM, FIGS. 15 and 16",dose dependent increase
same,Median MEROS-GFP ratio (FACS),[5],increased the median MEROS-GFP ratio in a dose-dependent manner
same,Average MEROS-GFP ratio in the pilot screen,[6],0.069 (S.D. =0.006)
OO [H2O2],MEROS-GFP ratio (plate reader),[1],did not change the MEROS-GFP ratio
same,Median MEROS-GFP ratio (FACS),[5],did not change the MEROS-GFP ratio
CC(C)C[C@@H](C=O)NC(=O)[C@H](CC(C)C)NC(=O)[C@H](CC(C)C)NC(=O)OCc1ccccc1 [MG 132] (Cbz-Leu-Leu-Leu-aldehyde),Median MEROS-GFP ratio (FACS),[5],increased
C[C@H]1CCC/C=C/[C@@H]2C[C@H](O)C[C@H]2[C@H](O)/C=C/C(=O)O1 [brefeldin A],Median MEROS-GFP ratio (FACS),[5],increased
CCCCC/C=C\C/C=C\CCCCCCCC(=O)O [linoleic acid],Palmitate-induced reduced ER (percentage of reduced cells),INS-1 832/13 cells,significantly suppressed the ability of palmitate to create a reduced ER
CCCCCCCC/C=C\CCCCCCCC(=O)O [oleic acid],Palmitate-induced reduced ER (percentage of reduced cells),INS-1 832/13 cells,significantly suppressed the ability of palmitate to create a reduced ER
C/C=C(/C)C(=O)O[C@H]1C(C)=C2[C@H]([C@@H]1OC(=O)CCCCCCC)[C@@](C)(OC(C)=O)C[C@H](OC(=O)CCC)[C@@]1(O)[C@H]2OC(=O)[C@@]1(C)O [thapsigargin],MANF mRNA levels,MANF [7],Elevated levels of MANF mRNA
same,Soluble MANF protein in the medium,"MANF [7]; thapsigargin 50 nM, FIG. 1",detected in the medium
same,MANF mRNA expression,MANF [8],significant increase in MANF mRNA expression
same,Soluble MANF protein in the extracellular medium,MANF [9]; FIGS. 5 and 6,production and release of soluble MANF protein into the extracellular medium
same,MANF mRNA expression,"MANF [9]; two donors, FIG. 4",significant increase in MANF mRNA expression
same,Median MEROS-GFP ratio (FACS),[5],increased
"human islet amyloid polypeptide (hIAPP): human islet amyloid polypeptide, physiological inducer of ER stress (KCNTATCATQRLANFLVHSSNNFGAILSSTNVGSNTY; not fully specified (C-terminus, bridges); cysteine pairing not given here; UniProt P10997 34-70, looked up)",Median MEROS-GFP ratio (FACS),[5],increased
tunicamycin,MANF mRNA levels,MANF [7],Elevated levels of MANF mRNA
same,Median MEROS-GFP ratio (FACS),[5],increased
